Like-named read-outs stand apart in the source and are kept apart here.
Experiments:
HaCaT = assay: LDH cell viability assay, keratinocytes; type: cell-based, human; conditions: Homo sapiens, 24 h, LDH assay
Experimental: (§1) Normal prostate epithelial cells (PNT2), two prostate cancer cell lines (Du145 and PC3), human keratinocytes (HaCaT), two melanoma cell lines (A375 and HTB140) and two colon cancer cell lines (HT29 and Caco-2) were treated with 3 at a concentration range 1.0–50.0 µg/mL. Viability of the cells was estimated using lactate dehydrogenase (LDH) assay.
(§2) Cytotoxic activity of 3 was tested on human cancer and normal cells, grouped in three panels: prostate, skin and gastrointestinal. The prostate panel comprised prostate cancer cell lines DU145 (ATCC HTB-81) and PC3 (ATCC CRL-1435) and prostate normal epithelial cells PNT2 (ECACC 95012613). Melanoma cell lines A375 (ATCC CRL-1619) and HTB140 (ATCC Hs 294T) together with human keratinocytes HaCaT (obtained as a kind gift of Prof. Marta Michalik, Department of Cell Biology, Jagiellonian University) were included in the skin panel. Two colon cancer cell lines, namely Caco-2 (ATCC HTB-37) and HT29 (ATCC HTB-38), constituted the gastrointestinal panel. Du145 cells were grown in a modified Eagle’s medium with low (1.0 g/L) glucose concentration; HT29, PC3 and PNT-2 cells were grown in Dulbecco’s modified Eagle’s medium (DMEM) and F12 HAM Nutrient Mixture; Caco-2 cells were grown in modified Eagle’s medium with nonessential amino acids (NEAA); and melanoma cells and keratinocytes were maintained in modified Eagle’s medium with high (4.5 g/L) glucose concentration. The culture media contained antibiotics and 10% fetal bovine serum (FBS). All cultures were maintained at 37 °C in a humidified, 5% CO2-containing atmosphere.
(§3) The examined compound (3) was diluted in the culture media from freshly made stock solution in MeOH (10 mg/mL) to the working concentrations (from 0 to 50 μg/mL). Cell viability was determined as described previously. […] Then, the culture medium was replaced with the medium containing different concentrations of the assessed compound (1–50 μg/mL). After 24 h of incubation, the viability of the cells was determined using colorimetric lactate dehydrogenase (LDH) assay in comparison to the controls to which corresponding aliquots of MeOH diluted with culture media were added. Cells grown in the medium without the tested compound were used as control I (negative), and the positive control (control II) was obtained by incubation of the cells in the medium containing 1% Triton X-100. LDH released from the damaged cells into the cell culture medium was quantified by measuring the absorbance at 490 nm using a Synergy II Biotek microplate reader. Cytotoxicities of the examined compounds were calculated as follows: ((absorbance of the tested sample−absorbance of control I)/(absorbance of control II−absorbance of control I)) × 100. Results were means of three independent measurements (± SD). Doxorubicin (Ebewe Pharma G.m.b.H., Unterach, Austria) was used as a reference cytostatic drug.

[1] = LDH cell viability assay, keratinocytes; type: cell-based, human; conditions: human, HaCaT keratinocytes, read-out: Cell Viability (%) ± SD
Experimental: as §1, §2, §3

A459 cells = test system: A459 cells; parameters: method as in PMID 29751555; conditions: cited from earlier work
HepG2 cells = test system: HepG2 cells; parameters: method as in PMID 29751555; conditions: HepG2, cell density 2 × 10^4, 96 h treatment; cited from earlier work
HT29 = assay: LDH cell viability assay, colon cancer cells; type: cell-based; conditions: Homo sapiens, HT-29; for IC50: HT29, 24 h, LDH assay
Experimental: as §1, §2, §3

A375 = assay: LDH cell viability assay, melanoma cells; type: cell-based; conditions: Homo sapiens, A-375; for IC50: A375, 24 h, LDH assay
Experimental: as §1, §2, §3

HTB140 = assay: LDH cell viability assay, melanoma cells; type: cell-based; conditions: Homo sapiens; for IC50: HTB140, 24 h, LDH assay
Experimental: as §1, §2, §3

[2] = LDH cell viability assay, normal prostate epithelial cells; type: cell-based, human; conditions: human, PNT2 normal prostate epithelial cells, 24 h, read-out: Cell Viability (%) ± SD
Experimental: as §1, §2, §3

PNT2 = assay: as above; type: cell-based, human; conditions: Homo sapiens, PNT2, 24 h, LDH assay
Experimental: as §1, §2, §3

PC3 = assay: LDH cell viability assay, prostate cancer cells; type: cell-based; conditions: Homo sapiens, PC-3; for IC50: PC3, 24 h, LDH assay
Experimental: as §1, §2, §3

Du145 = assay: LDH cell viability assay, prostate cancer cells; type: cell-based; conditions: Homo sapiens, DU-145; for IC50: Du145, 24 h, LDH assay
Experimental: as §1, §2, §3

[3] = value in parentheses, read-out: IC50 (IC50 µM) (converted)

In the case of `C=C1C(=O)O[C@H]2[C@H]1[C@@H](O)[C@H](OC(=O)CC(C)C)[C@H](C)CCC(=O)[C@](C)(O)[C@@H]2OC(=O)C(C)C` [Compound 3], the IC50 (HaCaT; read-out: IC50) is reported as 7.95 ± 0.15 µg/mL, the IC50 (HaCaT; [3]) is reported as 17 µM and the viability at 24 h, 1 µg/mL ([1]; 1 µg/mL) is reported as 86.8 ± 1.7%. For the same compound, the viability at 24 h, 3 µg/mL ([1]; 3 µg/mL) was 74.5 ± 2.29%, the viability at 24 h, 5 µg/mL ([1]; 5 µg/mL) was 64.4 ± 1.33% and the viability at 24 h, 10 µg/mL ([1]; 10 µg/mL) was 30.5 ± 1.32%. For the same compound, the viability at 24 h, 20 µg/mL ([1]; 20 µg/mL) was 0.79 ± 0.72%, the viability at 24 h, 30 µg/mL ([1]; 30 µg/mL) was 0% and the viability at 24 h, 50 µg/mL ([1]; 50 µg/mL) was 0%. The Cytotoxicity (A459 cells) was “resistant”, the IC50 (HepG2 cells) was 17 µM and the viability at 1 µg/mL (HT29; HT29, 1 µg/mL, 24 h, read-out: Cell Viability (%) ± SD) was 69.3 ± 1.75%. For the same compound, the viability at 3 µg/mL (HT29; HT29, 3 µg/mL, 24 h, read-out: Cell Viability (%) ± SD) was 58 ± 1.66%, the viability at 5 µg/mL (HT29; HT29, 5 µg/mL, 24 h, read-out: Cell Viability (%) ± SD) was 49.2 ± 2% and the viability at 10 µg/mL (HT29; HT29, 10 µg/mL, 24 h, read-out: Cell Viability (%) ± SD) was 38 ± 2.29%. The viability at 20 µg/mL (HT29; HT29, 20 µg/mL, 24 h, read-out: Cell Viability (%) ± SD) was 24.4 ± 1.1%, the viability at 30 µg/mL (HT29; HT29, 30 µg/mL, 24 h, read-out: Cell Viability (%) ± SD) was 10.4 ± 1.09% and the viability at 50 µg/mL (HT29; HT29, 50 µg/mL, 24 h, read-out: Cell Viability (%) ± SD) was 0.79 ± 0.78%. The IC50 (HT29; [3]) was 13.3 µM, the IC50 (HT29; read-out: IC50) was 6.23 ± 0.89 µg/mL and the viability at 1 µg/mL (A375; A375, 1 µg/mL, 24 h, read-out: Cell Viability (%) ± SD) was 64.2 ± 1.13%. It also gave a viability at 3 µg/mL (A375; A375, 3 µg/mL, 24 h, read-out: Cell Viability (%) ± SD) of 55.4 ± 1.44%, a viability at 5 µg/mL (A375; A375, 5 µg/mL, 24 h, read-out: Cell Viability (%) ± SD) of 43.8 ± 1.69% and a viability at 10 µg/mL (A375; A375, 10 µg/mL, 24 h, read-out: Cell Viability (%) ± SD) of 33 ± 2.3%. The viability at 20 µg/mL (A375; A375, 20 µg/mL, 24 h, read-out: Cell Viability (%) ± SD) was 7.09 ± 1.78%, the viability at 30 µg/mL (A375; A375, 30 µg/mL, 24 h, read-out: Cell Viability (%) ± SD) was 0.82 ± 0.65% and the viability at 50 µg/mL (A375; A375, 50 µg/mL, 24 h, read-out: Cell Viability (%) ± SD) was 0%. It also gave an IC50 (A375; [3]) of 20.4 µM, an IC50 (A375; read-out: IC50) of 9.57 ± 0.87 µg/mL and a viability at 1 µg/mL (HTB140; HTB140, 1 µg/mL, 24 h, read-out: Cell Viability (%) ± SD) of 81.4 ± 1.28%. It also gave a viability at 3 µg/mL (HTB140; HTB140, 3 µg/mL, 24 h, read-out: Cell Viability (%) ± SD) of 70.8 ± 2.37%, a viability at 5 µg/mL (HTB140; HTB140, 5 µg/mL, 24 h, read-out: Cell Viability (%) ± SD) of 50.9 ± 1.8% and a viability at 10 µg/mL (HTB140; HTB140, 10 µg/mL, 24 h, read-out: Cell Viability (%) ± SD) of 21.5 ± 2.53%. It also gave a viability at 20 µg/mL (HTB140; HTB140, 20 µg/mL, 24 h, read-out: Cell Viability (%) ± SD) of 4.1 ± 1.75%, a viability at 30 µg/mL (HTB140; HTB140, 30 µg/mL, 24 h, read-out: Cell Viability (%) ± SD) of 0.59 ± 0.78% and a viability at 50 µg/mL (HTB140; HTB140, 50 µg/mL, 24 h, read-out: Cell Viability (%) ± SD) of 0%. It also gave an IC50 (HTB140; [3]) of 13.6 µM, an IC50 (HTB140; read-out: IC50) of 6.36 ± 0.38 µg/mL and a viability at 24 h, 1 µg/mL ([2]; PNT2, 1 µg/mL) of 87.1 ± 1.79%. For the same compound, the viability at 24 h, 3 µg/mL ([2]; PNT2, 3 µg/mL) was 77.2 ± 1.32%, the viability at 24 h, 5 µg/mL ([2]; PNT2, 5 µg/mL) was 69.4 ± 0.97% and the viability at 24 h, 10 µg/mL ([2]; PNT2, 10 µg/mL) was 52.8 ± 2.31%. The viability at 24 h, 20 µg/mL ([2]; PNT2, 20 µg/mL) was 32.5 ± 1.84%, the viability at 24 h, 30 µg/mL ([2]; PNT2, 30 µg/mL) was 21.4 ± 0.45% and the viability at 24 h, 50 µg/mL ([2]; PNT2, 50 µg/mL) was 3.29 ± 1.27%. The IC50 (PNT2; [3]) was 35 µM, the IC50 (PNT2; read-out: IC50) was 16.4 ± 0.4 µg/mL and the viability at 1 µg/mL (PC3; PC3, 1 µg/mL, 24 h, read-out: Cell Viability (%) ± SD) was 78.5 ± 1.08%. For the same compound, the viability at 3 µg/mL (PC3; PC3, 3 µg/mL, 24 h, read-out: Cell Viability (%) ± SD) was 65 ± 1.46%, the viability at 5 µg/mL (PC3; PC3, 5 µg/mL, 24 h, read-out: Cell Viability (%) ± SD) was 49.9 ± 2.02% and the viability at 10 µg/mL (PC3; PC3, 10 µg/mL, 24 h, read-out: Cell Viability (%) ± SD) was 37.2 ± 1.27%. For the same compound, the viability at 20 µg/mL (PC3; PC3, 20 µg/mL, 24 h, read-out: Cell Viability (%) ± SD) was 29.2 ± 1.89%, the viability at 30 µg/mL (PC3; PC3, 30 µg/mL, 24 h, read-out: Cell Viability (%) ± SD) was 5.42 ± 2.25% and the viability at 50 µg/mL (PC3; PC3, 50 µg/mL, 24 h, read-out: Cell Viability (%) ± SD) was 0.65 ± 0.33%. The IC50 (PC3; [3]) was 19.1 µM, the IC50 (PC3; read-out: IC50) was 8.92 ± 1.02 µg/mL and the viability at 1 µg/mL (Du145; Du145, 1 µg/mL, 24 h, read-out: Cell Viability (%) ± SD) was 68.42 ± 0.52%. The viability at 3 µg/mL (Du145; Du145, 3 µg/mL, 24 h, read-out: Cell Viability (%) ± SD) was 56.3 ± 0.97%, the viability at 5 µg/mL (Du145; Du145, 5 µg/mL, 24 h, read-out: Cell Viability (%) ± SD) was 44.8 ± 2.05% and the viability at 10 µg/mL (Du145; Du145, 10 µg/mL, 24 h, read-out: Cell Viability (%) ± SD) was 37.7 ± 2.16%. For the same compound, the viability at 20 µg/mL (Du145; Du145, 20 µg/mL, 24 h, read-out: Cell Viability (%) ± SD) was 23.6 ± 1.54%, the viability at 30 µg/mL (Du145; Du145, 30 µg/mL, 24 h, read-out: Cell Viability (%) ± SD) was 12.5 ± 1.94% and the viability at 50 µg/mL (Du145; Du145, 50 µg/mL, 24 h, read-out: Cell Viability (%) ± SD) was 0.62 ± 0.58%. It also gave an IC50 (Du145; [3]) of 10.8 µM and an IC50 (Du145; read-out: IC50) of 5.08 ± 1.14 µg/mL.
